Here are results for nine molecules from ChEMBL document CHEMBL4184209, “Identification and initial optimization of inhibitors of Clostridium difficile (C. difficile) toxin B (TcdB)” (Bioorg Med Chem Lett, 2018).

pIC50: −log10 of the molar value. Activity calls are given as the source filed them.

Data set [1] concerns Limosilactobacillus reuteri. The experiment in a line: Effect on growth of Lactobacillus reuteri at 0.5 to 100 uM incubated for 24 hrs under anaerobic conditions by spectrophotometry. In kind it is organism-based.
The test system of data set [2] is Bacteroides fragilis. Description: Effect on growth of Bacteroides fragilis at 0.5 to 100 uM incubated for 48 hrs under anaerobic conditions by spectrophotometry. In kind it is organism-based.
In data set [3] the test system is Bifidobacterium longum. The experiment in a line: Effect on growth of Bifidobacterium longum at 0.5 to 100 uM incubated for 24 hrs under anaerobic conditions by spectrophotometry. It is filed as organism-based.
The target of data set [4] is T1, Toxin B (Clostridioides difficile, UniProt P18177). Description: Inhibition of C-terminal 6-His tagged recombinant Clostridium difficile toxin B catalytic fragment (Met1 to Leu543 residues) assessed as reduction in glucosyltransferase domain UDP-glucose hydrolysis activity using UDP-glucose and ADP Alexa633 tracer incubated fore 3 hrs by fluorescence polarization assay. (In general: Fluorescence polarisation rises when a labelled molecule tumbles more slowly, as on binding a larger partner.)
T1 sequence (P18177 whole entry, the tested form may be a part): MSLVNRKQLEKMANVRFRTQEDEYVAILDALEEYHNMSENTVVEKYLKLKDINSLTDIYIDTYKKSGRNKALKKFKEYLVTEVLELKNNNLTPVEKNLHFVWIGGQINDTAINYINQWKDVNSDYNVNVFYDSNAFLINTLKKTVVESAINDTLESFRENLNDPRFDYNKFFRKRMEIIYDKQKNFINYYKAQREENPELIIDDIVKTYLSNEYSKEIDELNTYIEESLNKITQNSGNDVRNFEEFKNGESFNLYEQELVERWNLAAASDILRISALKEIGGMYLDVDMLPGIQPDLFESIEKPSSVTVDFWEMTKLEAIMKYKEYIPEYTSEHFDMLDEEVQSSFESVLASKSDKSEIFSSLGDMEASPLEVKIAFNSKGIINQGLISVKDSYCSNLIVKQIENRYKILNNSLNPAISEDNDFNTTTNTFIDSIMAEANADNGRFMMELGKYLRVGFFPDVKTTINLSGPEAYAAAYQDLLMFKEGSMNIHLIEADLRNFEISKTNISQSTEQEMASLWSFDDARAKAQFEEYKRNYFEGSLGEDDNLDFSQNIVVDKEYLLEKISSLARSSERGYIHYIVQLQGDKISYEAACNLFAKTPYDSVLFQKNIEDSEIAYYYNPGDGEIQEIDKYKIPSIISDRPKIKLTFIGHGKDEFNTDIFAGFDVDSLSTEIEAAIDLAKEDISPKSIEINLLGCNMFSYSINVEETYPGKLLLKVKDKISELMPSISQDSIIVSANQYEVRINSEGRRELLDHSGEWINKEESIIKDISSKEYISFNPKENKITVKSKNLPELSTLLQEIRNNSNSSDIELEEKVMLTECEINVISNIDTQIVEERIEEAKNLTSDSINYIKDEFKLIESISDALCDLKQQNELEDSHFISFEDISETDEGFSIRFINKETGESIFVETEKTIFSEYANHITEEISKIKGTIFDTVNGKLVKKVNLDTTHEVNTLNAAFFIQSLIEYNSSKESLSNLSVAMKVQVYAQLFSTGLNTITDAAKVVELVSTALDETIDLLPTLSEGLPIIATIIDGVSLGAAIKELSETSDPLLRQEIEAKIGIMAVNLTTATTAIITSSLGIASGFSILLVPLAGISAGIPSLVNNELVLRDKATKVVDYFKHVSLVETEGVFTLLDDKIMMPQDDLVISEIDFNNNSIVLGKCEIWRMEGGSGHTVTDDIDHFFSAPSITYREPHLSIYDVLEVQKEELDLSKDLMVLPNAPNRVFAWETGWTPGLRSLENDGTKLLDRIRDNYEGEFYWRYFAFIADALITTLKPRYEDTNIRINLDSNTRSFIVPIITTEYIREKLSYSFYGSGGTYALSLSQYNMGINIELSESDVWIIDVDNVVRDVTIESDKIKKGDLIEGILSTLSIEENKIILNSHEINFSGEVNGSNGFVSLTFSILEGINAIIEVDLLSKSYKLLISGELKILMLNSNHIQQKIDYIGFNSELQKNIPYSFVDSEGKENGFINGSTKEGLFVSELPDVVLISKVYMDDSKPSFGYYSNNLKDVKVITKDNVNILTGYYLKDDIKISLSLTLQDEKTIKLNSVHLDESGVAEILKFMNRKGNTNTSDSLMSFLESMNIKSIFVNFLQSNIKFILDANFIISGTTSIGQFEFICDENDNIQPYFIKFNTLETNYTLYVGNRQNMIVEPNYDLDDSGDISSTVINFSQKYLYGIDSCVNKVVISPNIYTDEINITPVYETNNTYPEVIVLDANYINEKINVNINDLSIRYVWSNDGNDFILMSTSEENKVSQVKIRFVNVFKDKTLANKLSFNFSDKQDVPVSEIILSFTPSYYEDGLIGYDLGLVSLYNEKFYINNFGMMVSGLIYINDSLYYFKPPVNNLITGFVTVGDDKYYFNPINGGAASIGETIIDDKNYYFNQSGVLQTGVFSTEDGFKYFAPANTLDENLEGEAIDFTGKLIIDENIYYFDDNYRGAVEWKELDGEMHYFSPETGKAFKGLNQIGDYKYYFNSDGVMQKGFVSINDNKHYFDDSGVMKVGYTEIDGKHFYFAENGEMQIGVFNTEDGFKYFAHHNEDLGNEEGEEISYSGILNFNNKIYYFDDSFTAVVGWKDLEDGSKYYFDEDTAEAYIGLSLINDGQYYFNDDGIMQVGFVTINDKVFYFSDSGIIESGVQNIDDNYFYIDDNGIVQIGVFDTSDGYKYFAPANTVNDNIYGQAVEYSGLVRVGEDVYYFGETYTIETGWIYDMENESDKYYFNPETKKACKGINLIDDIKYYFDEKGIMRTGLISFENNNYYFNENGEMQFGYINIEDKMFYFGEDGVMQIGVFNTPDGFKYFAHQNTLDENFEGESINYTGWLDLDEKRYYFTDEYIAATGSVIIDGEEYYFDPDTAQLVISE

Data set [5] is described as follows: Stability in mouse liver microsomes assessed as parent compound remaining level incubated for 15 mins. It is filed as ADME, microsome. Conditions: read-out: Stability. A general note: Liver microsomes are a subcellular fraction often used to study metabolism.
In data set [6] the target is T1, Toxin B. The experiment in a line: Inhibition of Clostridium difficile toxin B […] assessed as reduction in caspase 3/7 activation pre-incubated for 1 hr before TcdB addition by luminescence based assay1. It is filed as cell-based.
Data set [7] relates to Clostridioides difficile. Description: Effect on growth of Clostridium difficile at 0.5 to 100 uM incubated for 24 hrs under anaerobic conditions by spectrophotometry. In kind it is functional, organism-based.
Data set [8] in a line: Stability in human liver microsomes assessed as parent compound remaining level incubated for 15 mins. In kind it is ADME, microsome. The settings on record: read-out: Stability.
Data set [9] in a line: Cmax in CD1 mouse at 1 mg/kg, iv. It is filed as ADME, organism-based. Conditions: in vivo. Further details: dose 1 mg/kg, route intravenous.
A short description of data set [10]: Tmax in CD1 mouse at 10 mg/kg, po. It is filed as ADME, organism-based. Conditions: in vivo.
A short description of data set [11]: AUC (0 to 24 hrs) in CD1 mouse at 10 mg/kg, po. Details: dose 10 mg/kg, time < 24 hr, route oral. In kind it is ADME, organism-based. The settings on record: in vivo.
Data set [12] is described as follows: Clearance in CD1 mouse at 1 mg/kg, iv. In kind it is ADME, organism-based. The settings on record: in vivo.
Data set [13] in a line: Stability in mouse plasma assessed as parent compound remaining measured during 0 to 120 mins post dose. In kind it is ADME, cell-free.
The target in data set [14] is Toxin A (Clostridioides difficile, UniProt P16154). The experiment in a line: Inhibition of Clostridium difficile toxin A […] assessed as reduction in caspase 3/7 activation pre-incubated for 1 hr before TcdA addition by luminescence based assay1. In kind it is cell-based.
Sequence of Toxin A (P16154 whole entry): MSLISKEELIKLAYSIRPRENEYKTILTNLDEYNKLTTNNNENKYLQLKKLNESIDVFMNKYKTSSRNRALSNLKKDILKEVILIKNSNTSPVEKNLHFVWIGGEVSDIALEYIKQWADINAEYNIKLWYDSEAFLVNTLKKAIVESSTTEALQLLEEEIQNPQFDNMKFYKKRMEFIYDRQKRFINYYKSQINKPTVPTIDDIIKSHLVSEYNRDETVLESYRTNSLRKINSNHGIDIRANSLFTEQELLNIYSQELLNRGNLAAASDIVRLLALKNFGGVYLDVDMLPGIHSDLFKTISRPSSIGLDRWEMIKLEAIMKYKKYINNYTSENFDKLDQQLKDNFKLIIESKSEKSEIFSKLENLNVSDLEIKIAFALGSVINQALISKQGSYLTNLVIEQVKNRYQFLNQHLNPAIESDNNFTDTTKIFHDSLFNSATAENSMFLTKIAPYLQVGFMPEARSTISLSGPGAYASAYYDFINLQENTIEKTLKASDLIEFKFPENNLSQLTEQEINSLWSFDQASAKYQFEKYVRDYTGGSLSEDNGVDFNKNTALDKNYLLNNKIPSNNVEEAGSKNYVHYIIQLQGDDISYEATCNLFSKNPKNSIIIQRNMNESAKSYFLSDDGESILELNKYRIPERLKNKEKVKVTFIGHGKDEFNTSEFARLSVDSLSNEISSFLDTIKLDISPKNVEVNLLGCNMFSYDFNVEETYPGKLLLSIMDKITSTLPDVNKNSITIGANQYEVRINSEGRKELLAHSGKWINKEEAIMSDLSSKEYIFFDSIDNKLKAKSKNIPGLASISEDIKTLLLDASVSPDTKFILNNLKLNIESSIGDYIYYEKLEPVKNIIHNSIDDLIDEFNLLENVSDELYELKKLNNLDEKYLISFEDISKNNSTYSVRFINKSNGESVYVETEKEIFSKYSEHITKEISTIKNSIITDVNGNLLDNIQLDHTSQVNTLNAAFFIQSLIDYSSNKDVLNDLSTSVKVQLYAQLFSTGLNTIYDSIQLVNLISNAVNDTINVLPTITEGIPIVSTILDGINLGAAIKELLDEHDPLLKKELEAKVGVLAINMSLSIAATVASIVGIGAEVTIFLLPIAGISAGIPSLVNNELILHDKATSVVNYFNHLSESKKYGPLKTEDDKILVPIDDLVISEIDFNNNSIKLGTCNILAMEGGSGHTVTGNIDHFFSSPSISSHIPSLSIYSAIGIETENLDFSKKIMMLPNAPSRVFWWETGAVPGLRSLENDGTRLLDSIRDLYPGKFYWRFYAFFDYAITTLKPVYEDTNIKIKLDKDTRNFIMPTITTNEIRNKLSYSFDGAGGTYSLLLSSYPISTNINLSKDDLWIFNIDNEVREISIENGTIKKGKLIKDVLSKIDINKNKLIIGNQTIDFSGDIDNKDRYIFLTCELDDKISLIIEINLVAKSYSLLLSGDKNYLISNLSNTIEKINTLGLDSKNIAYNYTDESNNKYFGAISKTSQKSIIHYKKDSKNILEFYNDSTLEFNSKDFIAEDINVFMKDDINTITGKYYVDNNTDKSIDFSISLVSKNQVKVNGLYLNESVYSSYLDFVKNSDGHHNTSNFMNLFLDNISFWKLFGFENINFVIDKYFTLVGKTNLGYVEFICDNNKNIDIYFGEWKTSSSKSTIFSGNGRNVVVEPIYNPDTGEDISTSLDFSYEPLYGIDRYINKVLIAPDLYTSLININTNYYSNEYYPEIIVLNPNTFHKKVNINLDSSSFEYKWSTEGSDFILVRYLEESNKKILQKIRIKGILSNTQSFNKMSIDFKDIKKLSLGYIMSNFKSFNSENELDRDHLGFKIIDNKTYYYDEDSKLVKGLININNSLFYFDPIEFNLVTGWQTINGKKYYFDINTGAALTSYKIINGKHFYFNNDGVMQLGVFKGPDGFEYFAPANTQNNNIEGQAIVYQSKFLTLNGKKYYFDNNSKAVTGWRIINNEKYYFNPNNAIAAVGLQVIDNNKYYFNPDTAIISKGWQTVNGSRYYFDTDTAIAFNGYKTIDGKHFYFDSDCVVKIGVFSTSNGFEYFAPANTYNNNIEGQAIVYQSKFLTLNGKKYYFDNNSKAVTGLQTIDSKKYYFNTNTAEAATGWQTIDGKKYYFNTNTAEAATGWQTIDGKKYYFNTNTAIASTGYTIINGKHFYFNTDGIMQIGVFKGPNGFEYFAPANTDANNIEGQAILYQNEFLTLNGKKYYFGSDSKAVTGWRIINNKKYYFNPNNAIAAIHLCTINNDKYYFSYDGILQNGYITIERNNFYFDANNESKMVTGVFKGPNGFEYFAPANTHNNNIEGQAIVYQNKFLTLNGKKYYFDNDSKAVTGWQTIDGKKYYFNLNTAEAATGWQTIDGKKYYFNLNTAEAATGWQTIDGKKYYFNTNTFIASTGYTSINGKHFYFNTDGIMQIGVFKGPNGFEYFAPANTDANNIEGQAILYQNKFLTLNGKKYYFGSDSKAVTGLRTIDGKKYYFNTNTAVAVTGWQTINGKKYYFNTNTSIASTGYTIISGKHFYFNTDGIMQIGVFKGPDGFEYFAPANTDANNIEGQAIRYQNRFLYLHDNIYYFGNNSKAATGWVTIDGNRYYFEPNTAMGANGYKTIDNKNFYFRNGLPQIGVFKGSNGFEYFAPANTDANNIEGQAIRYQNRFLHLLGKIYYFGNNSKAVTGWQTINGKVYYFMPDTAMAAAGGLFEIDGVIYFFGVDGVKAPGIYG
The nature of data set [15]: Cmax in CD1 mouse at 10 mg/kg, po. The settings on record: in vivo. It is filed as ADME, organism-based. Further details: dose 10 mg/kg, route oral.
Data set [16] can be described thus: AUC (0 to 24 hrs) in CD1 mouse at 1 mg/kg, iv. It is filed as ADME, organism-based. Further details: dose 1 mg/kg, time < 24 hr, route intravenous. The settings on record: in vivo.
Data set [17] can be described thus: Apparent volume of distribution in CD1 mouse at 1 mg/kg, iv. It is filed as ADME, organism-based. The settings on record: in vivo, read-out: Vz.
The nature of data set [18]: Elimination half life in CD1 mouse at 1 mg/kg, iv. Conditions: in vivo, read-out: beta t1/2 (converted). In kind it is ADME, organism-based.
The nature of data set [19]: Stability in mouse plasma assessed as parent compound remaining measured after 15 mins post dose. In kind it is ADME, cell-free. The settings on record: read-out: Stability.
The nature of data set [20]: Stability in mouse plasma assessed as parent compound remaining measured after 2 hrs post dose. It is filed as ADME, cell-free.

As for `O=C(Nc1cnccn1)c1ccc(CN2C(=O)c3ccc(Cl)cc3NC(=O)[C@H]2Cc2cccnc2)cc1`, the Activity result in data set [1], in [2] and in data set [3] was “Non-Toxic” each time. In addition, the pIC50 (commonly the negative decadic logarithm of the IC50, by convention in mol/L) in [4] was 7.11; in data set [6] it was 4.89. The values for the remaining at 0.25 h in data set [5] and in data set [8] were 98% and 92%, respectively. The result in data set [7] was inactive.

Take `Cc1ccc(NC(=O)c2ccc(CN3C(=O)c4ccc(Cl)cc4NC(=O)[C@H]3Cc3ccccn3)cc2)nc1`: the Activity result in data set [1], in data set [2] and in [3] was “Non-Toxic” in each case. The Cmax (as a rule, the maximum level reached in the sampled fluid or tissue) was 1030 ng/mL in data set [9] and 2690 ng/mL in [15]. Also, the time of peak concentration (Tmax) (usually the time from dosing to the highest level) in data set [10] came out at 15 min. The area under the curve AUC(0-t) (in general, exposure summed from dosing to a finite time, without extrapolation to infinity) at 24 h is 1070 ng·h/mL in [11] and 200 ng·h/mL in data set [16]. Moreover, the clearance (as a rule, a measure of how efficiently the substance is removed, as volume per time) in [12] stood at 76 mL/min/kg. Also, the negative-log IC50 (pIC50) in data set [4] was 9.00; in data set [6], 6.77; in data set [14], 5.49. The remaining at 0.25 h in [5] stood at 43%; in data set [8], 63%. Further, the Stability entry in data set [13] is “Unstable”. In addition, in [7], the outcome was inactive. Moreover, in data set [17], the Vd came to 6.9 L/kg. The half-life in data set [18] is 60 min.

Consider `COc1cnc(NC(=O)c2ccc(CN3C(=O)c4ccc(Cl)cc4NC(=O)[C@H]3Cc3ccccn3)cc2)nc1`, for which the Activity entry in data set [1], in [2] and in [3] was “Non-Toxic” each time. Also, the highest concentration (Cmax) was 2 ng/mL in data set [9] and 27 ng/mL in data set [15]. Moreover, the Tmax in data set [10] was 30 min. Besides, the exposure AUC(0-t) at 24 h in data set [11] is 181 ng·h/mL; in data set [16] it was 2 ng·h/mL. Moreover, the remaining at 0.25 h in data set [19] was determined as 50%; in [5] it was 77%; in data set [8], 90%. Moreover, the figures for the pIC50 in data set [4], in data set [6] and in data set [14] were 8.15, 6.28 and 5.59, respectively. Also, in data set [20], the Stability entry is “Unstable”. For the same molecule, the outcome in data set [7] was inactive.

As for `O=C(Nc1ccccn1)c1ccc(CN2C(=O)c3ccc(Cl)cc3NC(=O)[C@H]2Cc2ccccn2)cc1`, the Activity entry in data set [1], in [2] and in data set [3] was “Non-Toxic” in each case. For the same molecule, the negative logarithm of the IC50 (pIC50) in data set [4] is 8.52; in data set [6], 6.64. The remaining at 0.25 h in data set [5] worked out at 53%; in data set [8] it was 99%. In data set [7], the outcome was inactive.

With `COc1ccc(NC(=O)c2ccc(CN3C(=O)c4ccc(Cl)cc4NC(=O)[C@H]3Cc3ccccn3)cc2)nc1`, the Activity result in data set [1], in data set [2] and in data set [3] was “Non-Toxic” throughout. In addition, the pIC50 in [4] is 8.52; in data set [6], 7.37; in [14], 5.96. For the same molecule, the figures for the remaining at 0.25 h in data set [5] and in data set [8] were 61% and 81%, respectively. For the same molecule, in data set [7], the outcome was inactive.

Take `Cc1cc(NC(=O)c2ccc(CN3C(=O)c4ccc(Cl)cc4NC(=O)[C@H]3Cc3cccnc3)cc2)no1`: the Activity entry in data set [1], in [2] and in data set [3] was “Non-Toxic” throughout. Also, the pIC50 in data set [4] was 7.30; in data set [6], 4.72. Besides, the remaining at 0.25 h in [5] came out at 31%; in data set [8] it was 100%. Besides, the outcome in data set [7] was inactive.

As for `O=C(Nc1ccccn1)c1ccc(CN2C(=O)c3ccc(Cl)cc3NC(=O)[C@H]2Cc2cccnc2)cc1`, the Activity entry in data set [1], in data set [2] and in data set [3] was “Non-Toxic” throughout. In addition, the negative logarithm of the IC50 (pIC50) is 8.05 in [4] and 5.35 in data set [6]. The remaining at 0.25 h in [5] was 57%; in data set [8], 97%. In data set [7], the outcome was inactive.

`O=C(Nc1ncccn1)c1ccc(CN2C(=O)c3ccc(Cl)cc3NC(=O)[C@H]2Cc2cccnc2)cc1`: the Activity entry in data set [1], in [2] and in [3] was “Non-Toxic” throughout. Also, the negative logarithm of the IC50 (pIC50) in [4] is 7.74. Further, the remaining at 0.25 h in data set [5] was found to be 88%; in data set [8], 100%. Besides, the outcome in [7] was inactive.

On to `O=C(Nc1nccs1)c1ccc(CN2C(=O)c3ccc(Cl)cc3NC(=O)[C@H]2Cc2cccnc2)cc1`, for which the Activity result in data set [1], in data set [2] and in data set [3] was “Non-Toxic” each time. In addition, the values for the pIC50 in data set [4] and in data set [6] were 7.38 and 4.70, respectively. The remaining at 0.25 h in data set [5] worked out at 67%; in data set [8], 61%. Besides, the outcome in data set [7] was inactive.
